These results are taken from publication PMC8892843 (The Science of the total environment, 2021).

As usually defined, the IC50 is the concentration that gives 50% inhibition. A lower IC50 goes with higher potency.

For assay [1], the target named is nicotinic receptor (nAChR) found in C. dilutus. The assay can be described thus: competitive [3H]imidacloprid displacement, filtration. The format is binding, Chironomus dilutus. The following applies: 1 nM [3H]IMI, pH 7.0, 20 °C, crude microsomes 100 μg/mL.
Assay [2] concerns the target nicotinic receptor (nAChR) found in H. azteca. Described as above. In kind it is binding, Hyalella azteca. The following applies: 1 nM [3H]IMI, pH 7.0, 20 °C, crude microsomes 100 μg/mL.

`O=[N+]([O-])N=C1NCCN1Cc1ccc(Cl)nc1` [imidacloprid]: the values for the IC50 in assay [1] and in assay [2] were 8.04 nM and 8.86 nM, respectively.
